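Cultured in 96-well plates, cells were exposed to test compound for 48 hours across five concentrations. The concentration for full growth arrest is given as TGI.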
Key:
Experiment in all cases: growth of human tumour cells (NCI), 48 h
[1] = tested on: DU-145 prostate
[2] = tested on: NCI-H226 lung
[3] = tested on: SK-OV-3 ovarian
[4] = tested on: HCT-15 colon
[5] = tested on: EKVX NSCLC
[6] = tested on: SK-MEL-28 melanoma
[7] = tested on: HCT-116 colon
[8] = tested on: IGROV1 ovarian
[9] = tested on: SF-295 CNS
[10] = tested on: COLO 205 colon
[11] = tested on: CCRF-CEM leukemia
[12] = tested on: TK-10 renal

Row | Structure (SMILES) | TGI [1] [µM] | TGI [2] [µM] | TGI [3] [µM] | TGI [4] [µM] | TGI [5] [µM] | TGI [6] [µM] | TGI [7] [µM] | TGI [8] [µM] | TGI [9] [µM] | TGI [10] [µM] | TGI [11] [µM] | TGI [12] [µM]
1 | C=C[C@@]1(C)CC(=O)[C@]2(O)[C@@]3(C)[C@@H](OC(C)=O)CCC(C)(C)[C@@H]3[C@H](O)[C@H](OC(C)=O)[C@@]2(C)O1 | > 100 | > 100 | > 100 | > 100 | > 100 | > 100 | > 100 | > 100 | > 100 |  |  | 
2 | COc1c2c(c(OC)c3c(=O)cc(C/C(=N/NC(=O)C[n+]4ccccc4)C(=O)Nc4cc(C)ccc4C)oc13)OCO2 |  |  | > 100 | > 100 | > 100 | > 100 | > 100 | > 100 |  | > 100 | > 100 | > 100
3 | C(=C\c1ccccc1)/Cn1nc(-c2ccccc2)nc1-c1cnccn1 | > 100 |  | > 100 | > 100 | > 100 | > 100 | > 100 | > 100 | > 100 | > 100 | > 100 | > 100
4 | COC1=C(OC)C(=O)c2cc(SC)c(=O)c(SC)cc2C1=O |  | 28.4 | > 100 | > 100 | 48.9 | 26.7 | 46.3 | > 100 | 29.2 | > 100 | 4.93 | > 100
5 | COc1ccc(-c2cc(-c3ccccc3)c3c(n2)-c2ccccc2NC(=O)C3)cc1 | > 100 | > 100 | > 100 | > 100 | > 100 | > 100 | > 100 | 52.6 | > 100 | > 100 |  | > 100
6 | C=CCN1C(=O)/C(=C/c2ccccc2)N=C1SC/C=C/C | > 100 | > 100 | > 100 | > 100 |  | > 100 | > 100 | > 100 | > 100 | > 100 | > 100 | > 100
7 | COc1ccccc1/[N+]([O-])=C/c1ccccc1OC(=S)S | > 100 | > 100 | > 100 | > 100 | > 100 | > 100 | > 100 | 77.2 | > 100 | 86 |  | > 100
8 | CCCC[P+](CCCC)(CCCC)C(C(=O)OC)C(C(=O)OC)=C1SC(C(=O)OC)=C(C(=O)OC)S1 (stereo unspecified) | > 100 | > 100 | > 100 | > 100 | > 100 | > 100 | > 100 | > 100 | > 100 | > 100 |  | > 100
9 | CC1=NN(c2cccc(Cl)c2)C(=N/c2nc3ccccc3s2)/C1=C\c1ccccc1O | > 100 | 87.8 | 81.1 | 81.1 | > 100 | 76.3 | 68 | > 100 | 86.2 |  | > 100 | > 100
10 | c1ccc2c(c1)Sc1ccccc1N2CCCN1c2ccccc2Sc2ccccc21 | > 100 | > 100 | > 100 | > 100 | > 100 | > 100 | > 100 | > 100 | > 100 | > 100 |  | > 100
11 | c1ccc2nc3c(nc2c1)sc1nc2ccccc2n13 | > 100 | > 100 | > 100 | > 100 | > 100 |  | > 100 | > 100 | > 100 | > 100 | > 100 | > 100
12 | N#Cc1c(Cl)cccc1Oc1ccc(S(=O)(=O)/N=C(\NO)Nc2ccc(Cl)cc2)cc1 | 32.9 | 48 |  | 34.1 | 29 | 41 | 27.2 | 34.4 | 32.3 | 33.6 | 43.9 | 30.7
13 | Cc1ccc(/C(O)=C/c2nc3ccccc3nc2NC23CC4CC(CC(C4)C2)C3)cc1 | > 10 |  | > 10 | > 10 |  | > 10 | > 10 | > 10 | > 10 | > 10 |  | > 10
14 | CCCCn1c(C)c(C)c2c1NN=C(C#N)S2(=O)=O | > 100 |  | > 100 | > 100 | > 100 | > 100 | > 100 | > 100 |  | > 100 |  | > 100
15 | CCOC(=O)Nn1cnnc1Cc1ccccc1 |  | > 100 | > 100 | > 100 | > 100 |  | > 100 | > 100 | > 100 | > 100 | > 100 | > 100
16 | N#Cc1cccc(Nc2ccccc2SSc2ccccc2Nc2cccc(C#N)c2)c1 | > 21.5 | 18.3 | > 21.5 | > 21.5 | > 21.5 | > 21.5 | 16.5 | 16.9 | > 21.5 |  | 14.9 | > 21.5
17 | O=c1[nH]nc(Cc2ccccc2)n1N=C1CCCCC1 | > 100 | > 100 |  | > 100 | > 100 | > 100 | > 100 | > 100 | > 100 | > 100 | > 100 | > 100
18 | C[C@@H]1C(=O)O[C@@H]2C[C@@]1(C)[C@@H]1C(=O)C3(O)OC14C2(C)OC(=O)[C@@]4(O)CCC1C3C(O)C=C2CC=CC(=O)[C@@]21C (stereo partly specified) | > 100 |  | > 100 | > 100 | > 100 | 54.4 | 48.2 | > 100 | 83.7 | > 100 | 40.7 | > 100
19 | N#CC12CCC(O)C(CC1)C2=O (stereo unspecified) |  | > 100 | > 100 | > 100 | > 100 | > 100 | > 100 | > 100 | > 100 | > 100 | > 100 | > 100
20 | O=c1ccc(-c2ccc(-n3ccnc3)cc2)nn1CCO | > 100 |  | > 100 | > 100 | > 100 | > 100 | > 100 | > 100 | > 100 | > 100 | > 100 | > 100

From PubChem BioAssay (NCI)
